Results on 20 molecules are retold here after patent US7601713B2, “Kinase inhibitors and their uses” (Rigel Pharmaceuticals, Inc., priority 2005, dated 2009).

Where two headings read alike, the source gives them in different places.

The target of one assay is kinase Lyn b (Homo sapiens, UniProt P07948). Briefly: Lyn b kinase inhibition. The assay is classed as biochemical.
Assay [1] relates to JAK kinases (JAK1 and JAK3). Briefly: JAK inhibition: IL-4-stimulated CD23 upregulation in human Ramos B-cells, FACS. The assay is classed as cell-based. To be noted: IL-4 stimulated Ramos B-cells, read-out: IC50, inhibition of JAK kinases in cellular assay. How it is done:
JAK inhibition was tested in human Ramos B-cells activated with IL-4. Twenty to 24 hours post stimulation, the cells are stained for upregulation of CD23 and analyzed by FACS. Stimulation of the B-cells with IL-4 leads to the activation of the JAK/STAT pathway through phosphorylation of the JAK kinase JAK1 and JAK3, which in turn phosphorylate and activate transcription of factor […].
For the assay, human Ramos B-cells (ATCC, Catalog No. CRL-1596) are cultured in RPMI 1640 medium (Cellgro, Catalog No. 10-040-CM) containing 10% fetal bovine serum (JRH, Catalog No. 12106-500M) according to the propagation protocol supplied with the cells, and maintained at a density of approximately 3.5×10^5 cells/ml. The day before the assay, the cells are diluted to 3.5×10^5 cells/ml to insure they are in the logarithmic growth phase. The cells are spun down, and suspended in RPMI 1640 medium containing 5% fetal bovine serum to a density of 3.5×10^4 cells/ml and aliquots dispensed into a 96-well tissue culture plate. Cells are incubated with test compound (dissolved in DMSO) or DMSO (control) for 1 hr at 37° C. and then stimulated with IL-4 (Pepotech, Catalog No. 200-04) for 20-24 hours (final concentration is 50 Units/ml). Cells are then spun down, stained with anti-CD23-PE antibody (BD Pharmigen, Catalog No. 555711) and analyzed by FACS.

A further assay deals with Lck kinase (Homo sapiens, UniProt P06239). Briefly: Lck kinase inhibition. In kind it is biochemical.
Chain of Lck kinase (P06239 whole entry): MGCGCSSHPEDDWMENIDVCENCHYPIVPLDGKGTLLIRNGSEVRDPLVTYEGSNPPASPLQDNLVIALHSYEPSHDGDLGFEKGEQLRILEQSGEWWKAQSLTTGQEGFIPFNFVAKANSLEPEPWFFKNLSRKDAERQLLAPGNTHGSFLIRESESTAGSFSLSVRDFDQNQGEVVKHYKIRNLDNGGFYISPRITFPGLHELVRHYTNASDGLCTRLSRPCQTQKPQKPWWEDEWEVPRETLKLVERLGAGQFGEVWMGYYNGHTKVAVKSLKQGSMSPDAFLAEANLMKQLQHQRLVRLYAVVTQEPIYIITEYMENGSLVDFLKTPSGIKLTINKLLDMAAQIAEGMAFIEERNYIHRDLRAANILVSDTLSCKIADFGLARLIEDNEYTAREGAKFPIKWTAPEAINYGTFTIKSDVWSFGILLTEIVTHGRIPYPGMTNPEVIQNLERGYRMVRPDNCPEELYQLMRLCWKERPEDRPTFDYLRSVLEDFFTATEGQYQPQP
The target of the next assay is Syk kinase (Homo sapiens, UniProt P43405). Briefly: cell-based Syk assay. The note with it: read-out: IC50, inhibition of Syk kinase.
For the next assay, the target named is T1, Axl kinase (Homo sapiens, UniProt P30530).
T1 construct: endogenous in cells; host or cells: HeLa cells
T1 sequence (P30530 26-894): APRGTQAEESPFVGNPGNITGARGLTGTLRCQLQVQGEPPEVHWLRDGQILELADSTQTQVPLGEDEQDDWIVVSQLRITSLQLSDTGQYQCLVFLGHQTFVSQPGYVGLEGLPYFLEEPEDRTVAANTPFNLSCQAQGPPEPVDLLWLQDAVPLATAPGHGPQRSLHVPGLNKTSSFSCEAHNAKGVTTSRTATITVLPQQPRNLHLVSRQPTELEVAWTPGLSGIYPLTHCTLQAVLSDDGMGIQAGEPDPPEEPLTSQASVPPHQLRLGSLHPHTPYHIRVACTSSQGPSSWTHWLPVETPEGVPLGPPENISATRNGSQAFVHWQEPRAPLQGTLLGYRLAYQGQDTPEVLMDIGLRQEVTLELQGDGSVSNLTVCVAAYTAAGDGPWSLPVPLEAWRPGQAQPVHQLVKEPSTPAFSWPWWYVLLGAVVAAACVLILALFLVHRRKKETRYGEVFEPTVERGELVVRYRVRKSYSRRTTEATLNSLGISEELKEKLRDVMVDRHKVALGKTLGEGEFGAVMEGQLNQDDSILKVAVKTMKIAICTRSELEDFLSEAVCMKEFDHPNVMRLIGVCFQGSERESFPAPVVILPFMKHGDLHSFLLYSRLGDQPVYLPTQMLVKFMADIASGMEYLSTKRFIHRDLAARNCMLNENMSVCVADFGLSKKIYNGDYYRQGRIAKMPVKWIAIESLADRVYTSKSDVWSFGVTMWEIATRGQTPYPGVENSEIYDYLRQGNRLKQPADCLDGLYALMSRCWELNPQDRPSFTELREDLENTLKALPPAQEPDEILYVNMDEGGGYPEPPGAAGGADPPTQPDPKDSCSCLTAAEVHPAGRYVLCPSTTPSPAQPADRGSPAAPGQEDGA
Briefly: Phospho-Akt in-cell Western assay (Axl antibody cross-linking, Hela cells). In kind it is cell-based. The note with it: phospho-Akt readout, read-out: IC50, inhibition of Axl kinase. In short, it runs like this: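 HeLa cells were starved 24 h in 0.5% FCS with 500 ng/mL Axl/Fc, pretreated with compound 1 h at 37 °C, then stimulated 5 min by cross-linked anti-Axl antibodies. Phospho-Akt was detected by in-cell chemiluminescent immunoassay and normalized to crystal violet cell number at 590 nm.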

The test system of a further assay is tumor cell lines. To be noted: cited from earlier work; for antiproliferative activity against tumor cell types: in vitro assays, variety of tumor cell lines.

Chain of kinase Lyn b (P07948 1-491 isoform P07948-2): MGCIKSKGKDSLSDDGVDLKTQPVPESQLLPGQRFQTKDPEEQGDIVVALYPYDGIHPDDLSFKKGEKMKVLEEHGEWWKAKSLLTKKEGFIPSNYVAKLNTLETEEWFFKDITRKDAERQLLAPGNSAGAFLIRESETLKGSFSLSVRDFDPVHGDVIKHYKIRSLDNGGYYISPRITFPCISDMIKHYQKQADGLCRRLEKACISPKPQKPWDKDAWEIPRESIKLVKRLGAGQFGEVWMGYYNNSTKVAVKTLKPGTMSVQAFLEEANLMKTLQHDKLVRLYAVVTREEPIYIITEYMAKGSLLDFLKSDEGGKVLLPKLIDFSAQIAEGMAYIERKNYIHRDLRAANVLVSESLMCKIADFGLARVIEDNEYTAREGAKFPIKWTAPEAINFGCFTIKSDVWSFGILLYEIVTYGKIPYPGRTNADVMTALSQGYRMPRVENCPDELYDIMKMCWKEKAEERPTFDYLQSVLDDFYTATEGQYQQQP

As for `CNC(=O)COc1cccc(Nc2nc(NC3C4C=CC(C4)C3C(N)=O)c3nc[nH]c3n2)c1` (racemic) [Compound 104], on kinase Lyn b, the IC50 is less than 1 µM.
Same read-out and setting: under `NC(=O)C1C2C=CC(C2)C1Nc1nc(Nc2ccc3c(c2)OCC(=O)N3)nc2[nH]cnc12` (racemic) [Compound 107, Racemic-(2-exo,3-exo)-N6-(3-aminocarbonylbicyclo[2.2. 1]hept-5-en-2-yl)-N2-(3,4-dihydro-3-oxo-2H-1,4-benzoxazin-7-yl)-1H-purine-2,6-diamine] stands less than 1 µM; under `CCOc1cccc(Nc2nc(NC3C4C=CC(C4)C3C(N)=O)c3nc[nH]c3n2)c1` (racemic) [Compound 131, Racemic-(2-exo,3-exo)-N6-(3-aminocarbonylbicyclo[2.2. 1]hept-5-en-2-yl)-N2-(3-ethoxy)phenyl-1H-purine-2,6-diamine], less than 1 µM.
Regarding `Cc1ccc(Nc2nc(NC3C4C=CC(C4)C3C(N)=O)c3nc[nH]c3n2)cc1F` (racemic) [Compound 134, Racemic-(2-exo,3-exo)-N6-(3-aminocarbonylbicyclo[2.2. 1]hept-5-en-2-yl)-N2-(3-fluoro-4-methy)phenyl-1H-purine-2,6-diamine], the IC50 against kinase Lyn b is less than 1 µM.
In the case of `NC(=O)C1C2C=CC(C2)C1Nc1nc(Nc2cccc3[nH]ccc23)nc2[nH]cnc12` (racemic) [Compound 135, Racemic-(2-exo,3-exo)-N6-(3-aminocarbonylbicyclo[2.2. 1]hept-5-en-2-yl)-N2-(1H-indol-4-yl)-1H-purine-2,6-diamine], the IC50 in assay [1] is greater than 10 µM; against Lck kinase, less than 5 µM.
For `Cc1cccc(Nc2nc(NC3CC4CCC3C4)c3nc[nH]c3n2)c1` (racemic) [Compound 151, Racemic-(2-exo)-N6-(bicyclo[2.2.1]hept-2-yl)-N2-(3-methyl)phenyl-1H-purine-2,6-diamine], the IC50 at Syk kinase was less than 10 µM; against Lck kinase, less than 5 µM.
With `NC(=O)c1c[nH]c2ccc(Nc3nc(NC4C5C=CC(C5)C4C(N)=O)c4nc[nH]c4n3)cc12` (racemic) [Compound 152, Racemic-(2-exo,3-exo-)-N6-(3-aminocarbonylbicyclo[2.2. 1]hept-5-en-2-yl)-N2-(3-aminocarbonyl-1H-indol-5-yl)-1H-purine-2,6-diamine], the figures for the IC50 (in assay [1]; on Lck kinase) were greater than 10 µM and less than 5 µM, respectively.
Molecule `COc1cccc(Nc2nc(NC3CC4CCC3C4)c3nc[nH]c3n2)c1` (racemic) [Compound 154, Racemic-(2-exo)-N6-(bicyclo[2.2.1]hept-2-yl)-N2-(3-methoxy)phenyl-1H-purine-2,6-diamine] yielded an IC50 on kinase Lyn b of less than 1 µM.
In turn, `Cc1cccc(Nc2nc(NC3C4CCC(C4)C3C(N)=O)c3cc[nH]c3n2)c1` (racemic) [Compound 165, Racemic-(2-exo,3-exo)-N4-(3-aminocarbonylbicyclo[2.2. 1]hept-2-yl)-N2-(3-methyl)phenyl-1H-pyrrolo[2,3-d]pyrimidine-2,4-diamine] showed an IC50 on Lck kinase of less than 5 µM.
On to `COc1cccc(Nc2nc(NC3C4CCC(C4)C3C(=O)NN)c3cc[nH]c3n2)c1` (racemic) [Compound 231, Racemic-(2-exo,3-exo)-N4-(3-hydrazidebicyclo[2.2. 1]hept-2-yl)-N2-(3-methoxyphenyl)-1H-pyrrolo[2,3-d]pyrimidine-2,4-diamine], for which the IC50 is less than 10 µM on Axl kinase, less than 5 µM in assay [1] and less than 5 µM at Syk kinase.
As for `COc1ccc(Nc2nc(NC3C4C=CC(C4)C3C(N)=O)c3scc(C)c3n2)cc1` (racemic) [Compound 237, Racemic-(2-exo,3-exo-)-7-methyl-N4-(3-aminocarbonylbicyclo [2.2.1]hept-5-en-2-yl)-N2-[4-methoxyphenyl]-thieno[3,2-d]pyrimidine-2,4-diamine], the results for the IC50 (on Axl kinase; in assay [1]; at Syk kinase) were greater than 10 µM, less than 5 µM and greater than 10 µM, respectively.
In the case of `COc1cc(Nc2nc(NC3C4C=CC(C4)C3C(N)=O)c3scc(C)c3n2)cc(OC)c1OC` (racemic) [Compound 238], the IC50 is greater than 10 µM on Axl kinase, less than 5 µM in assay [1] and greater than 10 µM at Syk kinase.
Take `Cc1csc2c(NC3C4C=CC(C4)C3C(N)=O)nc(Nc3ccc4[nH]ccc4c3)nc12` (racemic) [Compound 239, Racemic-(2-exo,3-aminocarbonylbicyclo [2.2.1]hept-5-en-2-yl)-N2-[1H-indol-5-yl]-thieno[3,2-d]pyrimidine-2,4-diamine]: the IC50 was greater than 10 µM on Axl kinase, less than 5 µM in assay [1] and less than 5 µM on Syk kinase.
Take `Cc1cc(Nc2ncc(F)c(NC3C4C=CC(C4)C3C(N)=O)n2)ccc1N1CCN(C)CC1` (racemic) [cis exo-exo racemate, N4-(3-aminocarbonylbicyclo [2.2.1]hept-5-en-2-yl)-5-fluoro-N2-[3-methyl-4-(4-methylpiperazin-1-yl)phenyl]-2,4-pyrimidinediamine]: in the assay on tumor cell lines (all cell lines tested), the “potency of exo-exo racemate relative to endo-endo racemate” value is “approximately twenty-fold”. In addition, the “antiproliferative activity against tumor cell types” value with tumor cell lines was “exhibit antiproliferative activity”.
As for `Cc1cc(Nc2ncc(F)c(NC3C4C=CC(C4)C3C(N)=O)n2)ccc1N1CCN(C)CC1` [(1S,2S,3R,4R) diastereomer, N4-(3-aminocarbonylbicyclo [2.2.1]hept-5-en-2-yl)-5-fluoro-N2-[3-methyl-4-(4-methylpiperazin-1-yl)phenyl]-2,4-pyrimidinediamine], the “IC50s against tumor cell lines” value in the assay with tumor cell lines (isolated stereoisomers) is “micromolar range”.
As for `NC(=O)[C@@H]1[C@H](Nc2nc(Nc3cccc(F)c3)nc3[nH]cnc23)[C@H]2C=C[C@@H]1C2` [Compound 109, (1R,2R,3S,4S)-N6-(3-Aminocarbonylbicyclo[2.2. 1]hept-5-en-2-yl)-N2-(3-fluoro)phenyl-1H-purine-2,6-diamine], the IC50 against kinase Lyn b was less than 1 µM.
On the same count and under the same terms, the result for `NC(=O)[C@@H]1[C@H](Nc2nc(Nc3cccc(OCCN4CCOCC4)c3)nc3[nH]cnc23)[C@H]2C=C[C@@H]1C2` [Compound 112, (1R,2R,3S,4S)-N6-(3-Aminocarbonylbicyclo[2.2. 1]hept-5-en-2-yl)-N2-[3-(2-morpholin-4-yl-ethoxy)phenyl]-1H-purine-2,6-diamine] reads less than 1 µM; that for `NC(=O)[C@H]1[C@@H](Nc2nc(Nc3cccc(OCCN4CCOCC4)c3)nc3[nH]cnc23)[C@@H]2C=C[C@H]1C2` [Compound 113, (1S,2S,3R,4R)-N6-(3-Aminocarbonylbicyclo[2.2. 1]hept-5-en-2-yl)-N2-[3-(2-morpholin-4-yl-ethoxy)phenyl]-1H-purine-2,6-diamine], less than 1 µM; that for `NC(=O)[C@@H]1[C@H](Nc2nc(Nc3ccc(Cc4ccncc4)cc3)nc3[nH]cnc23)[C@H]2C=C[C@@H]1C2` [Compound 148, (1R,2R,3S,4S)-N6-(3-Aminocarbonylbicyclo[2.2. 1]hept-5-en-2-yl)-N2-[4-(4-pyridinylmethyl)phenyl]-1H-purine-2,6-diamine], less than 1 µM.
For `Cc1cc(Nc2ncc(F)c(NC3CCCC3C(N)=O)n2)ccc1N1CCN(C)CC1` [trans (1S,2S) diastereomer, N4-(2-aminocarbonylcyclopent-1-yl)-5-fluoro-N2-[4-(4-methylpiperazin-1-yl)-3-methylphenyl]-2,4-pyrimidinediamine], the “antiproliferative activity against tumor cell types” value in the assay on tumor cell lines and with tumor cell lines (listed as trans(1S,2S)) was “relatively inactive” in each case.

As usually defined, the IC50 is the concentration that inhibits the measured activity by half.
